Holding throughout (type): cell-based
In one data set the test system is GS4.1 cells. The data set can be described thus: Cytotoxicity evaluation in GS4.1 cells (Cell Titer 96 AQueous One Solution Cell Proliferation Assay). The settings on record: cellular viability, treated as in replicon assay, read-out: HCV Replicon CC50. Here is the method:
(§1) Huh-7 cells containing HCV Coni subgenomic replicon (GS4.1 cells), (C. Seeger; Fox Chase University, Philadelphia, Pa., USA), are grown in Dulbecco's Modified Eagle Medium (DMEM) supplemented with 10% fetal bovine serum (FBS), 2 mM L-glutamine, 110 mg/L sodium pyruvate, 1× non-essential amino acids, 100 U/mL penicillin-streptomycin and 0.5 mg/mL G418 (Invitrogen). For dose-response testing, the cells are seeded in 96-well plates at 7.5×10^3 cells/well in a volume of 50 μL and incubated at 37° C./5% CO2. Three hours after plating, 50 μL of ten 2-fold serial dilutions of compounds (highest concentration, 75 μM) are added and cell cultures were incubated at 37° C./5% CO2 in the presence of 0.5% DMSO. Alternatively, compounds are tested at a single concentration of 15 μM. In all cases, Huh-7 cells lacking the HCV replicon served as negative control. The cells are incubated in the presence of compounds for 72 hours after which they were monitored for expression of the NS4A protein by enzyme-linked immunosorbent assay (ELISA). For this, the plates were then fixed for 1 min with 1:1 acetone:methanol, washed twice with phosphate-buffered saline (PBS), 0.1% Tween 20, blocked for 1 hour at room temperature with TNE buffer containing 10% FBS and then incubated for 2 h at 37° C. with the anti-NS4A mouse monoclonal antibody A-236 (ViroGen) diluted in the same buffer. After washing three times with PBS, 0.1% Tween 20, the cells are incubated 1 hour at 37° C. with anti-mouse immunoglobulin G-peroxidase conjugate in TNE, 10% FBS. After washing as described above, the reaction is developed with O-phenylenediamine (Zymed). The reaction is stopped after 30 minutes with […] and the absorbance is read at 492 nm using a Sunrise Tecan spectrophotometer. EC50 values are determined from the % inhibition versus concentration data using a sigmoidal non-linear regression analysis based on four parameters with Tecan Magellan software. When screening at a single concentration, the results are expressed as % inhibition at 15 μM. For cytotoxicity evaluation, GS4.1 cells are treated with compounds as described above and cellular viability was monitored using a Cell Titer 96 AQueous One Solution Cell Proliferation Assay (Promega). CC50 values are determined from the % cytotoxicity versus concentration data with Tecan Magellan software as described above.

Data set [1] has as its system Huh-7 cells containing HCV Coni subgenomic replicon (GS4.1 cells). The data set can be described thus: HCV replicon assay. The settings on record: GS4.1 cells, 72 hours incubation, NS4A expression by ELISA, read-out: HCV Replicon EC50. Here is the method:
as §1
Compounds presented in the table below were assayed according to the replicon assay described above.

The nature of data set [2]: Cytotoxicity evaluation in GS4.1 cells (Cell Titer 96 AQueous One Solution Cell Proliferation Assay). The settings on record: human, cellular viability, treated as in replicon assay, read-out: HCV Replicon CC50. On the procedure: as §1

Broadly, the CC50 is the concentration that lowers cell viability or growth by half. As a reminder, the EC50 is the concentration needed to bring the measured effect to its halfway point.

Molecules are shown by their SMILES. Where two headings read alike, the source gives them in different places.

On to `CCOC(=O)[C@@H](CC(C)C)NP(=O)(N[C@H](CC(C)C)C(=O)OCC)OC[C@H]1O[C@@H](n2cnc3c(OC)nc(N)nc32)C(C)(O)C1O` (some centres unmarked) [Compound 66], for which the CC50 with GS4.1 cells is no more than 75 µM. Also, the EC50 in data set [1] lay within 0.1 to 1 µM.

`CCOC(=O)[C@@H](NP(=O)(N[C@H](C(=O)OCC)C(C)CC)OC[C@H]1O[C@@H](n2cnc3c(N4CCCC4)nc(N)nc32)C(C)(O)C1O)C(C)CC` (some centres unmarked) [Compound 67]: in data set [2], the CC50 at 72 h is greater than 75 µM. For the same compound, the EC50 in data set [1] (Hepatitis C virus, Huh-7, 72 h) was 0.1 to 1 µM.

With `CCOC(=O)[C@@H](NP(=O)(N[C@H](C(=O)OCC)C(C)C)OC[C@H]1O[C@@H](n2cnc3c(N4CCCC4)nc(N)nc32)C(C)(O)C1O)C(C)C` (some centres unmarked) [Compound 68], the CC50 at 72 h in data set [2] is greater than 75 µM. In addition, the EC50 in data set [1] (Hepatitis C virus, Huh-7, 72 h) is less than 0.1 µM.

Turning to `CCOC(=O)[C@H](Cc1ccccc1)NP(=O)(N[C@@H](Cc1ccccc1)C(=O)OCC)OC[C@H]1O[C@@H](n2cnc3c(N4CCCC4)nc(N)nc32)C(C)(O)C1O` (some centres unmarked) [Compound 69], in data set [2], the CC50 at 72 h was no more than 75 µM. For the same compound, the EC50 in data set [1] (Hepatitis C virus, Huh-7, 72 h) is less than 0.1 µM.

For `CCOC(=O)C(NP(=O)(NC(C(=O)OCC)C(C)C)OC[C@H]1O[C@@H](n2cnc3c(NC4CC4)nc(N)nc32)C(C)(O)C1O)C(C)C` (some centres unmarked) [Compound 70], the CC50 at 72 h in data set [2] is greater than 75 µM. The EC50 in data set [1] (Hepatitis C virus, Huh-7, 72 h) was 0.1 to 1 µM.

Take `CCOC(=O)[C@H](Cc1ccccc1)NP(=O)(N[C@@H](Cc1ccccc1)C(=O)OCC)OC[C@H]1O[C@@H](n2cnc3c(N4CCOCC4)nc(N)nc32)C(C)(O)C1O` (some centres unmarked) [Compound 71]: the CC50 at 72 h in data set [2] is greater than 75 µM. For the same compound, the EC50 in data set [1] (Hepatitis C virus, Huh-7, 72 h) was less than 0.1 µM.

As for `CCOC(=O)[C@@H](NP(=O)(N[C@H](C(=O)OCC)C(C)C)OC[C@H]1O[C@@H](n2cnc3c(N4CCOCC4)nc(N)nc32)C(C)(O)C1O)C(C)C` (some centres unmarked) [Compound 72], the 50% cytotoxic concentration (CC50) at 72 h in data set [2] was greater than 75 µM. Also, in data set [1] (Hepatitis C virus, Huh-7, 72 h), the EC50 lay within 0.1 to 1 µM.

`COc1nc(N)nc2c1ncn2[C@@H]1O[C@H](COP(N)(=O)OCCSC(=O)C(C)(C)CO)C(O)C1(C)O` (some centres unmarked) [Compound 73]: the CC50 at 72 h in data set [2] is greater than 75 µM. Moreover, in data set [1] (Hepatitis C virus, Huh-7, 72 h), the EC50 was 0.1 to 1 µM.

Turning to `CCOC(=O)CCNP(=O)(OCCSC(=O)C(C)(C)CO)OC[C@H]1O[C@@H](n2cnc3c(OC)nc(N)nc32)C(C)(O)C1O` (some centres unmarked) [Compound 74], the CC50 at 72 h in data set [2] was greater than 75 µM. Also, the EC50 in data set [1] (Hepatitis C virus, Huh-7, 72 h) was in the range of 0.1 to 1 µM.

As to `CC(C)NP(=O)(OCCSC(=O)C(C)(C)CO)OC[C@H]1O[C@@H](n2cnc3c(NC4CC4)nc(N)nc32)C(C)(O)C1O` (some centres unmarked) [Compound 75], the CC50 at 72 h in data set [2] is greater than 75 µM. The EC50 in data set [1] (Hepatitis C virus, Huh-7, 72 h) lay in the range of 0.1 to 1 µM.

As to `CCOC(=O)CCNP(=O)(OCCSC(=O)C(C)(C)CO)OC[C@H]1O[C@@H](n2cnc3c(NC4CC4)nc(N)nc32)C(C)(O)C1O` (some centres unmarked) [Compound 76], the CC50 at 72 h in data set [2] is greater than 75 µM. Moreover, the EC50 in data set [1] (Hepatitis C virus, Huh-7, 72 h) fell in the range of 0.1 to 1 µM.

With `CCOC(=O)[C@@H](NP(=O)(N[C@H](C(=O)OCC)C(C)C)OC[C@H]1O[C@@H](n2cnc3c(SC)nc(N)nc32)C(C)(O)C1O)C(C)C` (some centres unmarked) [Compound 77], in data set [2], the CC50 at 72 h was greater than 75 µM. For the same compound, in data set [1] (Hepatitis C virus, Huh-7, 72 h), the EC50 lay in the range of 0.1 to 1 µM.

For the compound `CN(N)c1nc(N)nc2c1ncn2[C@@H]1O[C@H](COP(=O)(NCc2ccccc2)OCCSC(=O)C(C)(C)CO)C(O)C1(C)O` (some centres unmarked) [Compound 78], the CC50 at 72 h in data set [2] was greater than 75 µM. Besides, the EC50 in data set [1] (Hepatitis C virus, Huh-7, 72 h) fell in the range of 0.1 to 1 µM.

In the case of `CC(C)NP(=O)(OCCSC(=O)C(C)(C)CO)OC[C@H]1O[C@@H](n2cnc3c(Cl)nc(N)nc32)C(C)(O)C1O` (some centres unmarked) [Compound 79], in data set [2], the CC50 at 72 h was no more than 75 µM. For the same compound, in data set [1] (Hepatitis C virus, Huh-7, 72 h), the EC50 was less than 0.1 µM.

In the case of `CCOC(=O)[C@H](CC(C)C)NP(=O)(N[C@@H](CC(C)C)C(=O)OCC)OC[C@H]1O[C@@H](n2ccc(=O)[nH]c2=O)C(C)(O)C1O` (some centres unmarked) [Compound 80], the cytotoxic concentration (CC50) at 72 h in data set [2] is greater than 75 µM. Further, in data set [1] (Hepatitis C virus, Huh-7, 72 h), the EC50 was 1 to 10 µM.

Consider `C#CC1(F)C(O)[C@@H](COP(=O)(N[C@@H](CC(C)C)C(=O)OCC)N[C@H](CC(C)C)C(=O)OCC)O[C@H]1n1cnc2c(NC3CC3)nc(N)nc21` (some centres unmarked) [Compound 81], for which the 50% cytotoxic concentration (CC50) at 72 h in data set [2] is no more than 75 µM. Further, the EC50 in data set [1] (Hepatitis C virus, Huh-7, 72 h) was in the range of 1 to 10 µM.
